Source: patent publication US4521537A, “Spiro[2H-1,4-benzodioxepin-3(5H)4'-piperidine and -3'-pyrrolidine] compounds and their use as antihypertensive agents” (Hoechst-Roussel Pharmaceuticals Incorporated, priority 1984, dated 1985)
Counter-ions that a name gives are not always drawn. Like-named read-outs stand apart in the source and are kept apart here.

Tests used:
mice = test: phenylquinone-induced writhing test in mice (PQW), analgesia; assay type: in vivo, male, CD-1 mice; settings: Mus musculus; for change in vivo at 20 mg/kg: 20 mg/kg SC, read-out: PQW % (percent inhibition of writhing)
Procedure: Compounds of this invention produce analgesia when administered to mammals. A phenylquinone-induced writhing test in mice (PQW) was used as an assay to detect analgesia. The procedure employed was a modification of Siegmund, E., Cadmus, R. and Lu, G: Proc. Soc. Exptl. Bio. Med., 95: 729 (1957). 12.5 mg of phenyl-p-benzoquinone were dissolved in 5 ml of 95% ethanol and q.s. to 100 ml with distilled water and administered to mice (10 ml/kg, i.p.). This produces a characteristic "writhe" which is defined as an inward rotation of one or more feet with twisting and turning of the trunk, drawing in of the abdominal wall, lordosis and arching of the back.
A total of 28 male, CD-1 mice (18 to 30 grams) were employed for a time response. Animals recived food and water ad libitum. Drugs to be tested were prepared with distilled water and, if insoluble, one drop of a suitable surfactant was added.
Twenty animals (5/group) were administered the drug 15, 30, 45 and 60 minutes prior to phenylquinone injections. Control animals (2/group) received an equal amount of vehicle. After the administration of phenylquinone the mice were placed separately into one-liter beakers and 5 minutes were allowed to lapse. The mice were then observed for a period of 10 minutes and the number of writhes were recorded for each animal. The formula for computing percent inhibition is: [formula]
The time period with the greatest percent of inhibition is considered the peak time.
A dose range is run in the same fashion as a time response except 10 animals per group were tested at the peak time of drug activity. Fifty animals, 4 drug groups, and a vehicle control were employed. Animals were dosed and tested in a randomized manner. An estimated ED50 was calculated by a computer linear regression analysis.

[1] = test system: spontaneous hypertensive rat; test: antihypertensive activity, spontaneous hypertensive rat (SHR) test, indirect tail cuff method; assay type: in vivo
Procedure: Compounds of this invention are useful as antihypertensive agents due to their ability to depress blood pressure in mammals. Antihypertensive activity is measured in the spontaneous hypertensive rat by the indirect tail cuff method described by A. Schwartz, Ed., Methods in Pharmacology, Vol. page 135, Appleton Century Crafts, New York (1971). […] The drop in blood pressure is measured on the third day following administration. The antihypertensive activity is expressed as mm Hg decrease in mean arterial blood pressure.

[2] = Table I, 50 mg/kg PO, three days
[3] = Table I, 10 mg/kg PO, three days
[4] = Table I, 3 mg/kg PO, three days

For `CC(=O)N1CCC2(CC1)OCc1ccccc1OC2C` (centres unmarked) [Example 73, 1'-Acetyl-2-methylspiro[2H-1,4-benzodioxepin-3(5H)4'-piperidine]], which change in vivo at 20 mg/kg (mice; Table III) is on record?
Its change in vivo at 20 mg/kg is -27%.

Which “SHR mm Hg (decrease in mean arterial blood pressure)” value [1, 2] does the source give for `CC1Oc2ccccc2COC12CCN(CCCC(c1ccc(F)cc1)c1ccc(F)cc1)CC2` (centres unmarked) [Example 8, 1'-[4,4-Bis-(4-fluorophenyl)butyl]-2-methylspiro[2H-1,4-benzodioxepin-3(5H)4'-piperidine]oxalate] here?
Its value is -102 mm Hg.

`COC(=N)N1CCC2(CC1)OCc1ccccc1OC2C` (centres unmarked) [Example 69, 2-Methylspiro[2H-1,4-benzodioxepin-3(5H)4'-piperidine]-1'-carboximidic acid, methyl ester hydrochloride] was tested. Which change in vivo at 20 mg/kg (mice; Table III) did it give?
The change in vivo at 20 mg/kg was -74%.

How did the “SHR mm Hg (decrease in mean arterial blood pressure)” value [1, 2] turn out when `CC1Oc2ccccc2COC12CCN(CCC=C(c1ccc(F)cc1)c1ccc(F)cc1)CC2` (centres unmarked) [Example 10, 1'-[4,4-Bis(4-fluorophenyl)-3-butenyl]-2-methylspiro[2H-1,4-benzodioxepin-3(5H)4'-piperidine]maleate] was run?
The value was -18 mm Hg.

Which change in vivo at 20 mg/kg (mice; Table III) does the source give for `CC1Oc2ccccc2COC12CCN(CC(O)COc1ccc(F)cc1)CC2` (centres unmarked) [Example 90, 2-Methyl-1'-[2-hydroxy-3-(4-fluorophenoxy)propyl]spiro[2H-1,4-benzodioxepin-3(5H)4'-piperidine]hydrochloride] here?
Its change in vivo at 20 mg/kg is -99%.

Which “SHR mm Hg (decrease in mean arterial blood pressure)” value [1, 2] does the source give for `CC1Oc2ccc(F)cc2COC12CCN(CCCC(c1ccc(F)cc1)c1ccc(F)cc1)CC2` (centres unmarked) [Example 42, 1'-[4,4-Bis(4-fluorophenyl)butyl]-7-fluoro-2-methylspiro[2H-1,4-benzodioxepin-3(5H)4'-piperidine]hydrochloride] here?
The value was -126 mm Hg.

With `CC1Oc2c(Cl)cccc2COC12CCN(CCCC(c1ccccc1)c1ccccc1)CC2` (centres unmarked) [Example 74, 1'-(4,4-Diphenylbutyl)-9-chloro-2-methylspiro[2H-1,4-benzodioxepin-3(5H)4'-piperidine]hydrochloride] as the compound, how does the change in vivo at 20 mg/kg (mice; Table III) read?
The change in vivo at 20 mg/kg was -25%.

For `C[C@](N)(Cc1ccc(O)c(O)c1)C(=O)O` [α-methyl dopa, reference compound], which SHR value ([1]; similar test, 50 mg/kg PO for five days) is on record?
Its SHR value is -40 mm Hg.

How did the “SHR mm Hg (decrease in mean arterial blood pressure)” value ([1]; Table III, 50 mg/kg PO) turn out when `CC1Oc2ccc(Cl)cc2COC12CCN(CCCC(C1CCCCC1)C1CCCCC1)CC2` (centres unmarked) [Example 87, 1'-(4,4-Dicyclohexylbutyl)-7-chloro-2-methylspiro[2H-1,4-benzodioxepin-3(5H)4'-piperidine]hydrochloride] was run?
The value was -69 mm Hg.

For `CC1Oc2cc(Cl)ccc2COC12CCN(CC#N)CC2` (centres unmarked) [Example 66, 8-Chloro-1'-cyanomethyl-2-methylspiro[2H-1,4-benzodioxepin-3(5H)4'-piperidine]], which change in vivo at 20 mg/kg (mice; Table II) is on record?
The change in vivo at 20 mg/kg was -9%.

How did the ED50 (mice; po, read-out: ED50 (PQW)) turn out when `COc1ccc2c(c1)c(CC(=O)O)c(C)n2C(=O)c1ccc(Cl)cc1` [Indomethacin, reference compound] was run?
Its ED50 is 0.7 mg/kg.

Which “SHR mm Hg (decrease in mean arterial blood pressure)” value ([1]; Table I, 0.3 mg/kg PO, three days) does the source give for `CC1Oc2ccc(Cl)cc2COC12CCN(CCCC(c1ccc(F)cc1)c1ccc(F)cc1)CC2` (centres unmarked) [Example 18, 1'-[4,4-Bis(4-fluorophenyl)butyl]-7-chloro-2-methylspiro[2H-1,4-benzodioxepin-3(5H)4'-piperidine]oxalate] here?
The value was -41 mm Hg.

Which change in vivo at 20 mg/kg (mice; Table III) does the source give for `CC1Oc2ccc(Cl)cc2COC12CCN(C(c1ccc(F)cc1)c1ccc(F)cc1)CC2` (centres unmarked) [Example 82, 7-Chloro-2-methyl-1'-bis(4-fluorophenyl)methylspiro[2H-1,4-benzodioxepin-3(5H)4'-piperidine]hydrochloride] here?
The change in vivo at 20 mg/kg was -30%.

How did the change in vivo at 20 mg/kg (mice; Table II) turn out when `CCCCCN1CCC2(CC1)OCc1ccccc1OC2C` (centres unmarked) [Example 54, 2-Methyl-1'-pentylspiro[2H-1,4-benzodioxepin-3(5H)4'-piperidine]oxalate] was run?
Its change in vivo at 20 mg/kg is -36%.

How did the “SHR mm Hg (decrease in mean arterial blood pressure)” value [1, 3] turn out when `CC1Oc2ccccc2COC12CCN(CCCC(O)c1ccc(F)cc1)CC2` (centres unmarked) [Example 23, 1'-[4-Hydroxy-4-(4-fluorophenyl)butyl]-2-methylspiro[2H-1,4-benzodioxepin-3(5H)4'-piperidine]] was run?
Its value is -31 mm Hg.

For `CC1Oc2ccccc2COC12CCN(CCCCc1ccc(F)cc1)CC2` (centres unmarked) [Example 14, 1'-[4-(4-Fluorophenyl)butyl]-2-methylspiro[2H-1,4-benzodioxepin-3(5H)4'-piperidine]hydrochloride], which “SHR mm Hg (decrease in mean arterial blood pressure)” value [1, 2] is on record?
The value was -34 mm Hg.

With `CC1Oc2ccc(Cl)cc2COC12CCN(CCCC(c1ccccc1)c1ccccc1)CC2` (centres unmarked) [Example 17, 1'-[4,4-Diphenylbutyl]-7-chloro-2-methylspiro[2H-1,4-benzodioxepin-3(5H)4'-piperidine]oxalate] as the compound, how does the “SHR mm Hg (decrease in mean arterial blood pressure)” value [1, 4] read?
The value was -23 mm Hg.

And the “SHR mm Hg (decrease in mean arterial blood pressure)” value [1, 2]?
The value was -84 mm Hg.

Which change in vivo at 20 mg/kg (mice; Table II) does the source give for `CC1Oc2ccccc2COC12CCN(CCN(C)C)CC2` (centres unmarked) [Example 58, 1'-[2-(N,N-dimethylamino)ethyl]-2-methylspiro[2H-1,4-benzodioxepin-3(5H)4'-piperidine]dihydrochloride] here?
The change in vivo at 20 mg/kg was -6%.

For `CC1Oc2ccc(Cl)cc2COC12CCN(CCC=C(c1ccc(F)cc1)c1ccc(F)cc1)CC2` (centres unmarked) [Example 19, 1'-[4,4-Bis(4-fluorophenyl)-3-butenyl]-7-chloro-2-methylspiro[2H-1,4-benzodioxepin-3(5H)4'-piperidine]oxalate], which “SHR mm Hg (decrease in mean arterial blood pressure)” value [1, 3] is on record?
The value was -43 mm Hg.

How did the “SHR mm Hg (decrease in mean arterial blood pressure)” value [1, 4] turn out when `CC1Oc2ccc(Br)cc2COC12CCN(CCCC(c1ccc(F)cc1)c1ccc(F)cc1)CC2` (centres unmarked) [Example 21, 7-Bromo-1'-[4,4-bis(4-fluorophenyl)butyl]-2-methylspiro[2H-1,4-benzodioxepin-3(5H)4'-piperidine]oxalate] was run?
The value was -63 mm Hg.

What about the “SHR mm Hg (decrease in mean arterial blood pressure)” value ([1]; Table I, 5 mg/kg PO, three days) of the same compound?
The value was -74 mm Hg.

How did the “SHR mm Hg (decrease in mean arterial blood pressure)” value [1, 2] turn out when `CC1Oc2ccccc2COC12CCN(CCC=C(c1ccccc1)c1ccccc1)CC2` (centres unmarked) [Example 12, 1'-[4,4-Diphenyl-3-butenyl]-2-methylspiro[2H-1,4-benzodioxepin-3(5H)4'-piperidine]maleate] was run?
The value was -20 mm Hg.

`CC1Oc2ccc(F)cc2COC12CCN(CCCC(c1ccccc1)c1ccccc1)CC2` (centres unmarked) [Example 41, 1'-(4,4-Diphenylbutyl)-7-fluoro-2-methylspiro[2H-1,4-benzodioxepin-3(5H)4'-piperidine]hydrochloride] was tested. Which “SHR mm Hg (decrease in mean arterial blood pressure)” value [1, 2] did it give?
The value was -34 mm Hg.

With `CC1Oc2ccc([N+](=O)[O-])cc2COC12CCN(CCCC(c1ccc(F)cc1)c1ccc(F)cc1)CC2` (centres unmarked) [Example 83, 1'-[4,4-Bis(4-fluorophenyl)butyl]-2-methyl-7-nitrospiro[2H-1,4-benzodioxepin-3(5H)4'-piperidine]hydrochloride] as the compound, how does the “SHR mm Hg (decrease in mean arterial blood pressure)” value ([1]; Table III, 3 mg/kg PO) read?
The value was -65 mm Hg.

For `CC1Oc2ccccc2COC12CCNCC2` (centres unmarked) [Example 36, 2-Methylspiro[2H-1,4-benzodioxepin-3(5H)4'-piperidine]oxalate], which “SHR mm Hg (decrease in mean arterial blood pressure)” value [1, 2] is on record?
Its value is -42 mm Hg.

Which “SHR mm Hg (decrease in mean arterial blood pressure)” value [1, 2] does the source give for `CC1Oc2ccc(Cl)cc2COC12CCN(CCC=C(c1ccccc1)c1ccccc1)CC2` (centres unmarked) [Example 16, 1'-[4,4-Diphenyl-3-butenyl]-7-chloro-2-methylspiro[2H-1,4-benzodioxepin-3(5H)4'-piperidine]oxalate] here?
Its value is -47 mm Hg.

`CC1Oc2ccc(Cl)cc2COC12CCN(CCC(c1ccccc1)c1ccccc1)CC2` (centres unmarked) [Example 20, 7-Chloro-2-methyl-1'-(3,3-diphenylpropyl)spiro[2H-1,4-benzodioxepin-3(5H)4'-piperidine]hydrochloride] was tested. Which “SHR mm Hg (decrease in mean arterial blood pressure)” value [1, 2] did it give?
Its value is -15 mm Hg.

With `CC1Oc2ccccc2COC12CCN(CCCC(c1ccc(Cl)cc1)c1ccc(Cl)cc1)CC2` (centres unmarked) [Example 15, 1'-[4,4-Bis(4-chlorophenyl)butyl]-2-methylspiro[2H-1,4-benzodioxepin-3(5H)4'-piperidine]oxalate] as the compound, how does the “SHR mm Hg (decrease in mean arterial blood pressure)” value [1, 2] read?
The value was -27 mm Hg.

Which “SHR mm Hg (decrease in mean arterial blood pressure)” value [1, 2] does the source give for `CC1Oc2ccccc2COC12CCN(CCCC(c1ccccc1)c1ccccc1)CC2` (centres unmarked) [Example 11, 1'-(4,4-Diphenylbutyl)-2-methylspiro[2H-1,4-benzodioxepin-3(5H)4'-piperidine]oxalate] here?
Its value is -17 mm Hg.

For `CC1Oc2ccccc2COC12CCN(CCCC(Oc1ccc(F)cc1)c1ccc(F)cc1)CC2` (centres unmarked) [Example 24, 1'-[4-(4-Fluorophenoxy)-4-(4-fluorophenyl)butyl]-2-methylspiro[2H-1,4-benzodioxepin-3(5H)4'-piperidine]oxalate], which “SHR mm Hg (decrease in mean arterial blood pressure)” value [1, 2] is on record?
Its value is -24 mm Hg.

`CC1Oc2ccccc2COC12CCN(CCCC1(c3ccc(F)cc3)OCCO1)CC2` (centres unmarked) [Example 9, 2-Methyl-1'-[3-[2-(4-fluorophenyl)-1,3-dioxolan-2yl]propyl]spiro[2H-1,4-benzodioxepin-3(5H)4'-piperidine]maleate] was tested. Which “SHR mm Hg (decrease in mean arterial blood pressure)” value [1, 2] did it give?
Its value is -34 mm Hg.
